From patent US20140275201A1, “IDENTIFICATION OF CANCER STEM CELL MARKERS AND USE OF […] TO TREAT CANCER” (BOARD OF REGENTS, THE UNIVERSITY OF TEXAS SYSTEM, priority 2013, published 2014)

Key:
HMLER-FOXC2 cells [1] = assay: Mammosphere assay, HMLER-FOXC2; type: cell-based, human; conditions: HMLER-FOXC2, 1000 cells, sunitinib 10 μM, 7 days
Protocol: (§1) FIG. 7: Sunitinib inhibits the growth and metastasis of FOXC2-expressing tumors. FIG. 7A: Quantification of HMLER-Vector and HMLER-FOXC2 cell viability in the presence of sunitinib (10 μM) relative to vehicle (DMSO). N=3; error bars indicate SEM. *P<0.05. FIG. 7B: In vitro quantification of mammospheres formed by 1000 HMLER-FOXC2 and HMLER-Snail cells in the presence of sunitinib (10 μM) or DMSO. N=3; error bars indicate SEM. *P<0.05. FIG. 7C: Tumor volume of HMLER-FOXC2 cells injected into the mammary fat pad of NOD/SCID mice and treated with 40 mg/kg of sunitinib or vehicle (N=9) daily for the indicated number of days. Top line represents Vehicle; bottom line represents Sunitinib. […] FIGS. 7E and F: Thirty days following initiation of sunitinib or vehicle treatment, mice were euthanized and the organs, lung (FIG. 7E) and brain (FIG. 7F), were dissected and analyzed for metastatic tumor burden using bioluminescence imaging. The luminescent signal of tumor cells is represented as the total photon flux detected in each organ from individual mice with the bar indicating the average. ***P<0.001, **P<0.05 compared to the vehicle control group.
(§2) Mammosphere cultures were performed as described (Dontu et al., 2003), with the exception that culture medium contained 1% methylcellulose to reduce cell aggregation (Mani et al., 2008). […] Spheres were quantified after 7 days.

HMLER-Snail cells = assay: Mammosphere assay, HMLER-Snail; type: cell-based, human; conditions: 1000 cells, sunitinib 10 μM, 7 days
Protocol: as §1, §2

[2] = test system: HMLE-Snail and SUM159 cells expressing shControl or shFOXC2; assay: MTS cell viability assay, cells expressing endogenous FOXC2; type: cell-based, human; conditions: cells expressing endogenous FOXC2 (shControl) versus shFOXC2, 96 hours, increasing concentrations
Protocol: (§3) FIGS. 12A and B: Quantification of HMLE-Snail (FIG. 12A) and SUM159 (FIG. 12B) cell viability expressing either shControl or shFOXC2, following culture for 96 hours in increasing concentrations of sunitinib. Cell viability was assessed using an MTS assay. Top lines represent shFOXC2; bottom lines represent shControl. FIG. 12C: In vitro quantification of mammospheres formed by cells described above grown in the presence of sunitinib. Data represents the number of mammospheres formed per 1000 cells seeded after 7 days of culture. For each cell type, the left column represents Vehicle and the right column represents Sunitinib. Error bars indicate SEM. *P<0.05.

HMLER-FOXC2 cells [3] = assay: Cell growth in monolayer cultures with sunitinib, HMLER-FOXC2; type: cell-based, human; conditions: sunitinib 10 μM (FIG. 7A), method says 2.5 μM, six days
Protocol: as §1
To determine the effects of sunitinib on cell growth, 2×10^5 cells were plated in a 6-well tissues culture dish. […] On the sixth day of treatment, viable cells per well was quantified using a Beckman-Coulter Vi-Cell Viability Analyzer.

[4] = test system: HMLE-Snail and SUM159 cells expressing shControl or shFOXC2; assay: Mammosphere assay, cells expressing endogenous FOXC2; type: cell-based, human; conditions: cells expressing endogenous FOXC2 (shControl) versus shFOXC2, 1000 cells seeded, 7 days
Protocol: as §3
Mammosphere cultures were performed as described (Dontu et al., 2003), with the exception that culture medium contained 1% methylcellulose to reduce cell aggregation (Mani et al., 2008). One thousand cells were plated per well into 96-well plates and cultured for 7-10 days, with fresh medium replaced every 3 days. Following incubation, mammospheres were photographed and spheres with a diameter greater than 75 μm were counted. To test the effects of sunitinib, 1000 cells were plated in 96-well low attachment plate in 100 μl mammosphere media. At 24 hours and 96 hours, 100 μl of mammosphere media containing 10 μM sunitinib or vehicle control (DMSO) was added to each well. Spheres were quantified after 7 days.

HMLER-FOXC2 tumors = assay: Orthotopic HMLER-FOXC2 xenograft in the mammary fat-pad; type: in vivo, NOD/SCID mice
Protocol: FIG. 7: Sunitinib inhibits the growth and metastasis of FOXC2-expressing tumors. FIG. 7A: Quantification of HMLER-Vector and HMLER-FOXC2 cell viability in the presence of sunitinib (10 μM) relative to vehicle (DMSO). N=3; error bars indicate SEM. *P<0.05. FIG. 7B: In vitro quantification of mammospheres formed by 1000 HMLER-FOXC2 and HMLER-Snail cells in the presence of sunitinib (10 μM) or DMSO. N=3; error bars indicate SEM. *P<0.05. FIG. 7C: Tumor volume of HMLER-FOXC2 cells injected into the mammary fat pad of NOD/SCID mice and treated with 40 mg/kg of sunitinib or vehicle (N=9) daily for the indicated number of days. Top line represents Vehicle; bottom line represents Sunitinib. FIG. 7D: Event-free survival of mice with orthotopic HMLER-FOXC2 xenografts treated daily with sunitinib (40 mg/kg, N=7) or vehicle (N=10). Mice were euthanized once tumors reached 1.5 cm^3. Bottom line represents Vehicle; top line represents Sunitinib. FIGS. 7E and F: Thirty days following initiation of sunitinib or vehicle treatment, mice were euthanized and the organs, lung (FIG. 7E) and brain (FIG. 7F), were dissected and analyzed for metastatic tumor burden using bioluminescence imaging. The luminescent signal of tumor cells is represented as the total photon flux detected in each organ from individual mice with the bar indicating the average. ***P<0.001, **P<0.05 compared to the vehicle control group.
To ascertain the effects of sunitinib on HMLER-FOXC2 tumor growth and animal survival, 1×10^6 firefly luciferase-labeled HMLER-FOXC2 cells were injected into the mammary fat-pad of NOD/SCID mice as described above. After 24 hours, the mice were treated 5 days a week with 40 mg/kg sunitinib or vehicle (n=9) by oral gavage. Animals were sacrificed once the tumors reached 1.5 cm^3 or 30 days following injection and the dissected organs were immediately analyzed for luciferase activity.

With `CCN(CC)CCNC(=O)c1c(C)[nH]c(/C=C2\C(=O)Nc3ccc(F)cc32)c1C` [sunitinib] the “decrease of mammosphere formation compared to vehicle (DMSO) treated cells” value (HMLER-FOXC2 cells [1]) was > 8 fold, the “decrease of mammosphere formation compared to vehicle (DMSO) treated cells” value (HMLER-Snail cells) was > 20 fold and the “sensitivity to sunitinib by MTS assay” value [2] was “increased sensitivity”. The “cell growth (cell viability relative to vehicle DMSO)” value (HMLER-FOXC2 cells [3]) was “specifically inhibit the cell growth”, the “sensitivity to sunitinib by reduction in mammosphere formation” value [4] was “increased sensitivity” and the “primary tumor growth (tumor volume)” value (HMLER-FOXC2 tumors; 40 mg/kg sunitinib by oral gavage versus vehicle, NOD/SCID mice) was “reduced primary tumor growth”. The “metastatic burden in brain (photon counts, bioluminescence)” value (HMLER-FOXC2 tumors; 40 mg/kg sunitinib oral versus vehicle, thirty days after start of treatment, dissected brain) was “significantly reduced metastatic burden”, the “metastatic burden in lungs (photon counts, bioluminescence)” value (HMLER-FOXC2 tumors; 40 mg/kg sunitinib oral versus vehicle, thirty days after start of treatment, dissected lungs) was “significantly reduced metastatic burden” and the event-free survival (HMLER-FOXC2 tumors; 40 mg/kg sunitinib oral versus vehicle, mice euthanized once tumors reached 1.5 cm^3) was “extended event-free survival”.
